Here are results for 1 molecule from patent US12447167B2, “GM-CSF-producing t-cell control agent and Th1/Th2 immune balance regulator” (National Center of Neurology and Psychiatry, priority 2014, dated 2025).

This assay concerns IL-4. Description: IL-4 expression level of sorted CD4-positive memory T-cells of MS patients (ELISA of culture supernatant). Type of assay: in vivo, human. The settings on record: 0.3 mg single oral. The method, then: A single dose of compound 31, which is a synthetic glycolipid of the present invention, described in the first aspect was orally administered to each of 2 MS patients (subjects) shown in Table 2 above after obtainment of informed consent. The dose was set to 0.3 mg per person.
Subsequently, T-cell subfractions were prepared from the peripheral blood of each subject by using the density gradient centrifugation method. First, a total of 20 mL of blood was collected from the vein of each subject 24 hours (1st day), 48 hours (2nd day), 72 hours (3rd day), 168 hours (7th day), and 192 hours (8th day) after the administration of compound 31 by using two 10-mL heparin sodium-containing vacuum blood collection tubes. For a control, 20 mL of blood was similarly collected from the vein of each subject one day before the administration of compound 31.
The collected PBMCs were stained with antibodies by the following method. First, 10 μL of a solution consisting of 20 μL of MACS buffer, 0.25 μL of APC-Cy7-anti-CD3 antibody (BioLegend, Inc.), 1 μL of PB-anti-CD4 antibody (BioLegend, Inc.), 1 μL of PerCP-Cy5.5-anti-CD45RA antibody (BioLegend, Inc.), and 1 μL of PC7-anti-CD56 antibody (Beckman Coulter, Inc.) was added to 6×10^6 cells of PBMCs, thoroughly mixed by vortexing, and then left on ice for 20 minutes. CD56 is a detection marker of cells having NK activity, and CD3^−CD56^− cells indicate being antigen-presenting cells (APCs). […]
mCD4T and APC obtained by the sorting were each suspended in a medium consisting of 500 mL of RPMI1640 (GIBCO/Thermo Fisher Scientific Inc.), 5 mL of glutamine (200 mM, Wako Pure Chemical Industries, Ltd.), 5 mL of Pen/strep (10,000 U/mL, GIBCO/Thermo Fisher Scientific Inc.), 0.5 mL of 2-mercaptoethanol (GIBCO/Thermo Fisher Scientific Inc.), and 50 mL of 10% (v/v) Cellect FETAL BOVINE SERUM (MP Biomedicals, LLC), and the number of cells was measured. […]
After the culture, a culture supernatant was collected, and IFN-γ, IL-4, IL-17, and GM-CSF were measured by the ELISA method. […]

For `CCCCCCCCCCCCCCCCCCCCCCCC(=O)NC(COC1OC(CO)C(O)C(O)C1O)[C@H](O)C(O)CCCCC` (stereo in doubt) [compound 31, (2S,3S,4R)-1-O-(α-D-galactosyl)-2-(N-tetracosanoylamino)-1,3,4-nonanetriol], the IL-4 expression level reads like this: (day 8, MBP stimulation, day −1 value 3.63) 6.38; (day 8, OVA stimulation, day −1 value 3.66) 7.19. Besides, the “change of expression level of IL-4” value (day8 vs day-1) was “increased”.
